From the supplement of paper PMC10307832

Key:
Experiment in all cases: relative viability (nuclei count vs DMSO), 5 days (fraction); higher = more cells survive
BX 795 + Navitoclax = compound: O=C(NCCCNc1nc(Nc2cccc(NC(=O)N3CCCC3)c2)ncc1I)c1cccs1 [BX 795] + CC1(C)CCC(c2ccc(Cl)cc2)=C(CN2CCN(c3ccc(C(=O)NS(=O)(=O)c4ccc(N[C@H](CCN5CCOCC5)CSc5ccccc5)c(S(=O)(=O)C(F)(F)F)c4)cc3)CC2)C1 [Navitoclax] (partner 0.5 µM)
How it was run: (§1)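 Relative viability divides the nuclei count in treated wells by that in vehicle wells. Lung cancer cell lines were seeded in 1536-well plates, dosed by pin tool the next day, and fixed and stained after 5 days in one step with final 0.05% Triton X-100, 1% formaldehyde and 1 ug/ml Hoechst. Dosing was a single drug or a fixed anchor-drug dose plus five library-drug doses (not always all listed) in √10 steps, and values are medians of duplicate plates imaged at 4×.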

BX 795 + Luminespib = compound: O=C(NCCCNc1nc(Nc2cccc(NC(=O)N3CCCC3)c2)ncc1I)c1cccs1 [BX 795] + CCNC(=O)c1noc(-c2cc(C(C)C)c(O)cc2O)c1-c1ccc(CN2CCOCC2)cc1 [Luminespib] (partner 0.01 µM)
How it was run: as §1

BX 795 + Pictilisib = compound: O=C(NCCCNc1nc(Nc2cccc(NC(=O)N3CCCC3)c2)ncc1I)c1cccs1 [BX 795] + CS(=O)(=O)N1CCN(Cc2cc3nc(-c4cccc5[nH]ncc45)nc(N4CCOCC4)c3s2)CC1 [Pictilisib] (partner 1 µM)
How it was run: as §1

BX 795 + Trametinib = compound: O=C(NCCCNc1nc(Nc2cccc(NC(=O)N3CCCC3)c2)ncc1I)c1cccs1 [BX 795] + CC(=O)Nc1cccc(-n2c(=O)n(C3CC3)c(=O)c3c(Nc4ccc(I)cc4F)n(C)c(=O)c(C)c32)c1 [Trametinib] (partner 0.02 µM)
How it was run: as §1

BX 795 + Crizotinib = compound: O=C(NCCCNc1nc(Nc2cccc(NC(=O)N3CCCC3)c2)ncc1I)c1cccs1 [BX 795] + C[C@@H](Oc1cc(-c2cnn(C3CCNCC3)c2)cnc1N)c1c(Cl)ccc(F)c1Cl [Crizotinib] (partner 1 µM)
How it was run: as §1

PC-3 [JPC-3]
relative viability (BX 795 + Navitoclax; first compound 0.04 µM): 0.864 | relative viability (BX 795 + Navitoclax; first compound 0.1265 µM): 0.838 | relative viability (BX 795 + Navitoclax; first compound 0.4 µM): 0.905 | relative viability (BX 795 + Navitoclax; first compound 1.265 µM): 0.75 | relative viability (BX 795 + Luminespib; first compound 0.04 µM): 0.67 | relative viability (BX 795 + Luminespib; first compound 0.1265 µM): 0.628 | relative viability (BX 795 + Luminespib; first compound 0.4 µM): 0.774 | relative viability (BX 795 + Luminespib; first compound 1.265 µM): 0.698 | relative viability (BX 795 + Pictilisib; first compound 0.04 µM): 0.753 | relative viability (BX 795 + Pictilisib; first compound 0.1265 µM): 0.707 | relative viability (BX 795 + Pictilisib; first compound 0.4 µM): 0.685 | relative viability (BX 795 + Pictilisib; first compound 1.265 µM): 0.827 | relative viability (BX 795 + Trametinib; first compound 0.04 µM): 0.723 | relative viability (BX 795 + Trametinib; first compound 0.4 µM): 0.631 | relative viability (BX 795 + Trametinib; first compound 1.265 µM): 0.729 | relative viability (BX 795 + Crizotinib; first compound 0.04 µM): 1.04 | relative viability (BX 795 + Crizotinib; first compound 0.1265 µM): 0.993 | relative viability (BX 795 + Crizotinib; first compound 0.4 µM): 1.06 | relative viability (BX 795 + Crizotinib; first compound 1.265 µM): 0.946

PC-14
relative viability (BX 795 + Navitoclax; first compound 0.04 µM): 0.976 | relative viability (BX 795 + Navitoclax; first compound 0.1265 µM): 0.988 | relative viability (BX 795 + Navitoclax; first compound 0.4 µM): 1.08 | relative viability (BX 795 + Navitoclax; first compound 1.265 µM): 0.795 | relative viability (BX 795 + Luminespib; first compound 0.04 µM): 0.138 | relative viability (BX 795 + Luminespib; first compound 0.1265 µM): 0.113 | relative viability (BX 795 + Luminespib; first compound 0.4 µM): 0.138 | relative viability (BX 795 + Luminespib; first compound 1.265 µM): 0.117 | relative viability (BX 795 + Pictilisib; first compound 0.04 µM): 0.654 | relative viability (BX 795 + Pictilisib; first compound 0.1265 µM): 0.758 | relative viability (BX 795 + Pictilisib; first compound 0.4 µM): 0.564 | relative viability (BX 795 + Pictilisib; first compound 1.265 µM): 0.439 | relative viability (BX 795 + Trametinib; first compound 0.04 µM): 0.754 | relative viability (BX 795 + Trametinib; first compound 0.1265 µM): 0.751 | relative viability (BX 795 + Trametinib; first compound 0.4 µM): 0.815 | relative viability (BX 795 + Trametinib; first compound 1.265 µM): 0.325 | relative viability (BX 795 + Crizotinib; first compound 0.04 µM): 0.879 | relative viability (BX 795 + Crizotinib; first compound 0.1265 µM): 0.919 | relative viability (BX 795 + Crizotinib; first compound 0.4 µM): 0.851 | relative viability (BX 795 + Crizotinib; first compound 1.265 µM): 0.602

RERF-LC-KJ
relative viability (BX 795 + Navitoclax; first compound 0.04 µM): 0.759 | relative viability (BX 795 + Navitoclax; first compound 0.1265 µM): 0.93 | relative viability (BX 795 + Navitoclax; first compound 0.4 µM): 0.771 | relative viability (BX 795 + Navitoclax; first compound 1.265 µM): 0.881 | relative viability (BX 795 + Luminespib; first compound 0.04 µM): 1.41 | relative viability (BX 795 + Luminespib; first compound 0.1265 µM): 1.27 | relative viability (BX 795 + Luminespib; first compound 0.4 µM): 1.29 | relative viability (BX 795 + Luminespib; first compound 1.265 µM): 0.753 | relative viability (BX 795 + Pictilisib; first compound 0.04 µM): 0.488 | relative viability (BX 795 + Pictilisib; first compound 0.1265 µM): 0.574 | relative viability (BX 795 + Pictilisib; first compound 0.4 µM): 0.536 | relative viability (BX 795 + Pictilisib; first compound 1.265 µM): 0.446 | relative viability (BX 795 + Trametinib; first compound 0.1265 µM): 0.962 | relative viability (BX 795 + Trametinib; first compound 0.4 µM): 0.878 | relative viability (BX 795 + Trametinib; first compound 1.265 µM): 0.788 | relative viability (BX 795 + Crizotinib; first compound 0.04 µM): 0.86 | relative viability (BX 795 + Crizotinib; first compound 0.1265 µM): 0.767 | relative viability (BX 795 + Crizotinib; first compound 0.4 µM): 0.699 | relative viability (BX 795 + Crizotinib; first compound 1.265 µM): 0.669

SK-LU-1
relative viability (BX 795 + Navitoclax; first compound 0.04 µM): 0.702 | relative viability (BX 795 + Navitoclax; first compound 0.1265 µM): 0.915 | relative viability (BX 795 + Navitoclax; first compound 0.4 µM): 0.553 | relative viability (BX 795 + Navitoclax; first compound 1.265 µM): 0.724 | relative viability (BX 795 + Luminespib; first compound 0.04 µM): 0.224 | relative viability (BX 795 + Luminespib; first compound 0.1265 µM): 0.217 | relative viability (BX 795 + Luminespib; first compound 1.265 µM): 0.173 | relative viability (BX 795 + Pictilisib; first compound 0.04 µM): 0.543 | relative viability (BX 795 + Pictilisib; first compound 0.1265 µM): 0.691 | relative viability (BX 795 + Pictilisib; first compound 0.4 µM): 0.416 | relative viability (BX 795 + Pictilisib; first compound 1.265 µM): 0.511 | relative viability (BX 795 + Trametinib; first compound 0.04 µM): 0.473 | relative viability (BX 795 + Trametinib; first compound 0.1265 µM): 0.674 | relative viability (BX 795 + Trametinib; first compound 0.4 µM): 0.396 | relative viability (BX 795 + Trametinib; first compound 1.265 µM): 0.469 | relative viability (BX 795 + Crizotinib; first compound 0.04 µM): 0.96 | relative viability (BX 795 + Crizotinib; first compound 0.1265 µM): 0.92 | relative viability (BX 795 + Crizotinib; first compound 0.4 µM): 0.459 | relative viability (BX 795 + Crizotinib; first compound 1.265 µM): 0.498

SK-MES-1
relative viability (BX 795 + Navitoclax; first compound 0.04 µM): 1.26 | relative viability (BX 795 + Navitoclax; first compound 0.1265 µM): 1.32 | relative viability (BX 795 + Navitoclax; first compound 0.4 µM): 1.23 | relative viability (BX 795 + Navitoclax; first compound 1.265 µM): 0.886 | relative viability (BX 795 + Luminespib; first compound 0.04 µM): 0.857 | relative viability (BX 795 + Luminespib; first compound 0.1265 µM): 0.757 | relative viability (BX 795 + Luminespib; first compound 0.4 µM): 0.78 | relative viability (BX 795 + Luminespib; first compound 1.265 µM): 0.5 | relative viability (BX 795 + Pictilisib; first compound 0.04 µM): 0.372 | relative viability (BX 795 + Pictilisib; first compound 0.1265 µM): 0.32 | relative viability (BX 795 + Pictilisib; first compound 0.4 µM): 0.322 | relative viability (BX 795 + Pictilisib; first compound 1.265 µM): 0.382 | relative viability (BX 795 + Trametinib; first compound 0.04 µM): 0.574 | relative viability (BX 795 + Trametinib; first compound 0.1265 µM): 0.46 | relative viability (BX 795 + Trametinib; first compound 0.4 µM): 0.519 | relative viability (BX 795 + Trametinib; first compound 1.265 µM): 0.396 | relative viability (BX 795 + Crizotinib; first compound 0.04 µM): 1.13 | relative viability (BX 795 + Crizotinib; first compound 0.1265 µM): 0.939 | relative viability (BX 795 + Crizotinib; first compound 0.4 µM): 0.836 | relative viability (BX 795 + Crizotinib; first compound 1.265 µM): 0.78

SW 1573
relative viability (BX 795 + Navitoclax; first compound 0.04 µM): 0.886 | relative viability (BX 795 + Navitoclax; first compound 0.1265 µM): 1.13 | relative viability (BX 795 + Navitoclax; first compound 0.4 µM): 1.12 | relative viability (BX 795 + Navitoclax; first compound 1.265 µM): 0.837 | relative viability (BX 795 + Luminespib; first compound 0.04 µM): 0.214 | relative viability (BX 795 + Luminespib; first compound 0.1265 µM): 0.488 | relative viability (BX 795 + Luminespib; first compound 0.4 µM): 0.514 | relative viability (BX 795 + Luminespib; first compound 1.265 µM): 0.172 | relative viability (BX 795 + Pictilisib; first compound 0.04 µM): 0.551 | relative viability (BX 795 + Pictilisib; first compound 0.1265 µM): 0.463 | relative viability (BX 795 + Pictilisib; first compound 0.4 µM): 0.608 | relative viability (BX 795 + Pictilisib; first compound 1.265 µM): 0.381 | relative viability (BX 795 + Trametinib; first compound 0.04 µM): 0.725 | relative viability (BX 795 + Trametinib; first compound 0.1265 µM): 0.642 | relative viability (BX 795 + Trametinib; first compound 0.4 µM): 0.753 | relative viability (BX 795 + Trametinib; first compound 1.265 µM): 0.232 | relative viability (BX 795 + Crizotinib; first compound 0.04 µM): 0.832 | relative viability (BX 795 + Crizotinib; first compound 0.1265 µM): 0.887 | relative viability (BX 795 + Crizotinib; first compound 0.4 µM): 0.584 | relative viability (BX 795 + Crizotinib; first compound 1.265 µM): 0.667

UMC-11
relative viability (BX 795 + Navitoclax; first compound 0.04 µM): 0.321 | relative viability (BX 795 + Navitoclax; first compound 0.1265 µM): 0.347 | relative viability (BX 795 + Navitoclax; first compound 0.4 µM): 0.326 | relative viability (BX 795 + Navitoclax; first compound 1.265 µM): 0.17 | relative viability (BX 795 + Luminespib; first compound 0.04 µM): 0.751 | relative viability (BX 795 + Luminespib; first compound 0.1265 µM): 1.06 | relative viability (BX 795 + Luminespib; first compound 0.4 µM): 1.07 | relative viability (BX 795 + Luminespib; first compound 1.265 µM): 0.271 | relative viability (BX 795 + Pictilisib; first compound 0.04 µM): 0.726 | relative viability (BX 795 + Pictilisib; first compound 0.1265 µM): 0.86 | relative viability (BX 795 + Pictilisib; first compound 0.4 µM): 0.683 | relative viability (BX 795 + Pictilisib; first compound 1.265 µM): 0.534 | relative viability (BX 795 + Trametinib; first compound 0.04 µM): 0.685 | relative viability (BX 795 + Trametinib; first compound 0.1265 µM): 0.665 | relative viability (BX 795 + Trametinib; first compound 0.4 µM): 0.547 | relative viability (BX 795 + Trametinib; first compound 1.265 µM): 0.531 | relative viability (BX 795 + Crizotinib; first compound 0.04 µM): 0.608 | relative viability (BX 795 + Crizotinib; first compound 0.1265 µM): 0.584 | relative viability (BX 795 + Crizotinib; first compound 0.4 µM): 0.322 | relative viability (BX 795 + Crizotinib; first compound 1.265 µM): 0.0915
